Molecules are shown by their SMILES.

A short description of series [1]: Apparent permeability from apical to basolateral side in […] TC7 cells. The series is classed as ADME, cell-based. As to conditions: Caco-2. In general terms: Passage across Caco-2 layers is used to estimate intestinal permeability.
The nature of series [2]: Apparent permeability from basolateral to apical side in […] TC7 cells. It counts as ADME, cell-based. As to conditions: Caco-2.

In general, Papp A→B refers to how fast a substance crosses the layer from the apical side. Broadly, the Papp B→A is the apparent permeability from the basolateral to the apical side of a cell layer. Take `Cn1c(=O)n(C2CCN(CCCn3cncc(-c4ccc(Cl)c(CNC(=O)c5ccc(F)cc5)c4)c3=O)CC2)c2cc(Cl)ccc21`: the Papp A→B in series [1] was 2.5 ×10⁻⁶ cm/s. Moreover, in series [2], the Papp B→A stood at 2.9 ×10⁻⁶ cm/s.
For `Cn1c(=O)n(C2CCN(CCCn3ccnc(-c4ccc(Cl)c(CNC(=O)c5ccc(F)cc5)c4)c3=O)CC2)c2cc(Cl)ccc21` the same measures were 0.6 ×10⁻⁶ cm/s and 3.7 ×10⁻⁶ cm/s.
For `Cn1c(=O)n(C2CCN(CCCn3nccc(-c4ccc(Cl)c(CNC(=O)c5ccc(F)cc5)c4)c3=O)CC2)c2cc(Cl)ccc21` the same measures were 1.3 ×10⁻⁶ cm/s and 1.5 ×10⁻⁶ cm/s.

The values are drawn from ChEMBL document CHEMBL1177820, “Diazinones as P2 replacements for pyrazole-based cathepsin S inhibitors” (Bioorg Med Chem Lett, 2010).
